Common to all, as to type: in vivo
One test concerns Mythimna separata. The test is described as follows: Efficacy test against Mythimna separata (maize leaf dipping). As to conditions: 125 ppm, maize leaf pieces immersed, second instar larvae, 6 days after release. How it is done: (§1) 5 parts by weight of the compound of the present invention, 93.6 parts by weight of dimethylformamide, and 1.4 parts by weight of polyoxyethylene alkylaryl ether were mixed and dissolved to prepare an emulsion (1) containing 5% of an active ingredient.
The emulsion (1) was diluted with water so that the concentration of the compound of the present invention was 125 ppm. Maize leaf pieces were immersed in the diluent for 30 seconds. The maize leaf pieces were placed in a petri dish, and five second instar larvae of M. separata were released.
The petri dish was left to stand in a thermostatic chamber at a temperature of 25° C. and a humidity of 60% during the test period. Mortality was evaluated when 6 days passed since the release of the insects, and the insecticidal rate was calculated. The test was repeated twice.

The subject of a further test is Spodoptera litura. The test is described as follows: Efficacy test against Spodoptera litura (cabbage leaf dipping). As to conditions: 125 ppm, cabbage leaves immersed, second instar larvae, 6 days after release. Here is the method: as §1
The emulsion (1) was diluted with water so that the concentration of the compound of the present invention was 125 ppm. Cabbage leaves were immersed in the diluent for 30 seconds. The cabbage leaves were placed in a petri dish, and five second instar larvae of S. litura were released. The petri dish was left to stand in a thermostatic chamber at a temperature of 25° C. and a humidity of 60% during the test period. Mortality was evaluated when 6 days passed since the release of the insects, and the insecticidal rate was calculated. The test was repeated twice.

Another test deals with Plutella xylostella. The test is described as follows: Efficacy test against Plutella xylostella (cabbage leaf dipping). The note with it: 125 ppm, cabbage leaves immersed, second instar larvae, 3 days after release. How it is done:
as §1
The emulsion (I) was diluted with water so that the concentration of the compound of the present invention was 125 ppm. Cabbage leaves were immersed in the diluent for 30 seconds. The cabbage leaves were air dried and placed in a petri dish, and five second instar larvae of P. xylostella were released. The petri dish was left to stand in a thermostatic chamber at a temperature of 25° C. and a humidity of 60% during the test period. Mortality was evaluated when 3 days passed since the release of the insects, and the insecticidal rate was calculated. The test was repeated twice.

For the next test, the system named is Tetranychus urticae. Briefly: Efficacy test against Tetranychus urticae (spray on kidney bean plants). As to conditions: 125 ppm spray on kidney bean plants, adult females removed after 3 days, surviving individuals 10 days after spraying.
Source text: as §1
98.6 parts by weight of dimethylformamide, and 1.4 parts by weight of polyoxyethylene alkylaryl ether were mixed and dissolved to prepare an emulsion (11) containing no active ingredient.
Kidney bean plants were raised in No. 3 pots, and 8 adult females of T. urticae from Aomori Prefecture were inoculated on primary leaves. The emulsion (I) was diluted with water so that the concentration of the compound of the present invention was 125 ppm. The diluent was sprayed on the kidney bean plants (treated group).
On the same day, the emulsion (11) was diluted 400 times with water. The diluent was sprayed on the kidney bean plants (untreated group).
The above No. 3 pots were left to stand in a thermostatic chamber at a temperature of 25° C. and a humidity of 65% during the test period. The inoculated adult females of T. urticae were removed with an aspirator 3 days after spraying. Eggs were laid on the leaves. The number of surviving individuals was examined 10 days after spraying, and the control rate was calculated according to the following formula. The test was repeated twice. Control rate (%)=100×[1−Nt/Nc] […]

The test system of another test is Thrips palmi. Briefly: Efficacy test against Thrips palmi (spray on kidney bean leaf piece). As to conditions: 125 ppm spray, first instar larvae, 2 days. Here is the method: as §1
1% agar was poured into a plastic petri dish (90 mm diameter), and a primary leaf piece of a kidney bean plant was placed thereon. 15 first instar larvae of T. palmi were inoculated thereon. The emulsion (I) was diluted with water so that the concentration of the compound of the present invention was 125 ppm. The diluent was sprayed on the leaf piece of the kidney bean plant. The petri dish was left to stand in a thermostatic chamber at a temperature of 25° C. and a humidity of 60% during the test period. Mortality of T. palmi was examined 2 days after that, and the insecticidal rate was calculated. The test was repeated twice.

The test system of test [1] is diamide-based insecticide-resistant Plutella xylostella. The test is described as follows: Efficacy test against diamide-based insecticide-resistant Plutella xylostella. The note with it: 125 ppm, cabbage leaves immersed, second instar larvae, 3 days. How it is done:
as §1
The emulsion (I) was diluted with water so that the concentration of the compound of the present invention was 125 ppm. Cabbage leaves were immersed in the diluent for 30 seconds. The cabbage leaves were air dried and placed in a petri dish, and five second instar larvae of diamide-based insecticide-resistant P. xylostella were released.
(§2) The petri dish was left to stand in a thermostatic chamber at a temperature of 25° C. and a humidity of 60% during the test period. Mortality was evaluated when 3 days passed since the release of the insects, and the insecticidal rate was calculated. The test was repeated twice.

The test system of test [2] is benzoylurea-based insecticide-resistant Helicoverpa armigera. Briefly: Efficacy test against benzoylurea-based insecticide-resistant Helicoverpa armigera. As to conditions: 125 ppm, cabbage leaves immersed, second instar larvae, 3 days. How it is done:
as §1
The emulsion (I) was diluted with water so that the concentration of the compound of the present invention was 125 ppm. Cabbage leaves were immersed in the diluent for 30 seconds. The cabbage leaves were air dried and placed in a petri dish, and 8 second instar larvae of benzoylurea-based insecticide-resistant H. armigera were inoculated.
as §2

For the compound `O=C(N[n+]1ccccc1)c1ccc(Cl)cc1` [comparative compound A], the “insecticidal rate against M. separata” value in the test with Mythimna separata was found to be 0%. Moreover, the “insecticidal rate against S. litura” value with Spodoptera litura was 0%. The “insecticidal rate against P. xylostella” value in the test on Plutella xylostella was found to be 0%. In addition, the “control rate against T. urticae” value in the test on Tetranychus urticae amounted to 100%. Besides, the “insecticidal rate against T. palmi” value with Thrips palmi is reported as 0%. Further, in test [1], the “insecticidal rate against diamide-based insecticide-resistant P. xylostella” value stood at 0%. The “insecticidal rate against benzoylurea-based insecticide-resistant H. armigera” value in test [2] is 0%.
